In patent US7592328B2, “Natural cyclodextrin complexes” (Pedipharm Oy, priority 2002, dated 2009):

What was measured:
[1] = dissolution of CBD from a gelatine capsule in 2% RM-β-CD dissolution media; type: physicochemical; settings: gelatine capsule with 1.0 mg pure CBD and 99 mg lactose, pH 6.6, n=6
[2] = oral administration, depending on the drug vehicle employed; cited from earlier work
[3] = 40% solution of HP-β-CD; cited from earlier work

SMILES	time in which CBD is not fully dissolved [1]	bioavailability [2]	THC solution concentration obtained [3]
C=C(C)[C@@H]1CCC(C)=C[C@H]1c1c(O)cc(CCCCC)cc1O [CBD, cannabidiol]	> 3 h		
CCCCCc1cc(O)c2c(c1)OC(C)(C)[C@@H]1CCC(C)=C[C@@H]21 [THC, Δ^9-tetrahydrocannabinol]		6-20%	1 mg/mL
